Key:
PPARγ = PPARγ (Homo sapiens (Human), UniProt P37231); assay: Nuclear hormone receptor selectivity assay (GAL4-NHR-LBD luciferase reporter, HEK293); format: cell-based
Experimental: In the assay system used, an activated GAL4-nuclear hormone receptor (NHR) fusion construct binds to an upstream activation sequence (UAS) and drives a luciferase reporter gene. […]
HEK293 cells were transfected with GAL4-NHR-LBD construct (pcDNA3.1neo) and the pGL4.31 GAL4-luciferase reporter construct (Promega) and incubated overnight at 37° C. and 5% CO2. After 16-24 hours, cells were harvested and plated at 20 μL (10,000 cells)/well in tissue-culture treated 384 well plate. […] Next, plates are spun briefly and incubated overnight at 37° C. and 5% CO2. […] In agonist mode, test compound was incubated directly with the cells. For receptors that are not constitutively active, a known agonist is also tested as a positive control.
After 16-24 hours, luciferase activity was measured. Plates and luciferase reagent (e.g. One-Glo® or Dual Glo®; Promega, Madison, Wis.) were brought to room temperature. Next, a 25 μL aliquot of luciferase reagent was added to each well. Plates were spun down briefly and incubated at room temperature for 10 minutes. The luciferase signal was measured on an Envision plate reader (Perkin Elmer) set to the ultra-sensitive luminescence setting.

[1] = test system: murine collagen-induced arthritis model; assay: Murine collagen-induced arthritis model; format: in vivo, DBA/1J mice; details: oral 3, 10 or 30 mg/kg twice daily; FIG. 4
Experimental: Female DBA/1J mice (Jackson Laboratories, 7-8 weeks old) were received and allowed to acclimate for about one week. On the day of immunization, an emulsion was freshly prepared by homogenizing equal volumes of Complete Freund's Adjuvant (CFA, Chondrex #7001) and a collagen type-2 solution (bovine source, Chondrex #20022) using a tissue homogenizer, on ice. A volume of 0.1 mL of this emulsion was injected subcutaneously into the base of the tail of each mouse, which was lightly anesthetized with isoflurane. Mice recovered from anesthesia were allowed food and water ad libitum.
Eighteen days after immunization, the mice were injected intraperitoneally with 40 μg of lipopolysaccaride (LPS, Sigma # L4005) in 0.2 mL saline, in order to help synchronize the disease progression in all animals. Seven days after LPS injection, the mice were assessed for knee joint swelling by measurement of each knee joint using digital calipers and computing total joint circumference. The total knee joint circumference of the 4 knee joints was then used to randomize mice into treatment groups of equal average circumference.
This dosing continued twice daily at 8- and 16-hour intervals for the duration of the study. As a positive control, one group of mice received 25 mg/kg Jak inhibitor (JAKi) tofacitinib once per day. Joints were measured 2-3 times per week.

Chain of PPARγ (P37231 238-503, species assumed): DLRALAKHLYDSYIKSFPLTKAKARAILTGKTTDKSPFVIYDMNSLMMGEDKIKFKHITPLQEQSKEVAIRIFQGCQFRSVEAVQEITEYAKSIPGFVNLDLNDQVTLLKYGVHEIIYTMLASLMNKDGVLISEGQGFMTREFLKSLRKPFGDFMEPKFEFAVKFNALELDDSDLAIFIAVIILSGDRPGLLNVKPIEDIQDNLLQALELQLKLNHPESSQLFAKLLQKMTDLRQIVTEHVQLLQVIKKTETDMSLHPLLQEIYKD

Agonist Mode, kind of agonism (PPARγ): (partial agonist)
SMILES: O=C(O)[C@@H]1CC=C(c2nn(C(=O)c3c(Cl)cccc3C3(C(F)(F)F)CC3)c3c2CC[C@@H](C(=O)N2CCC4(COC4)C2)C3)CC1 [Test Compound]
total joint circumference [1]: dose-dependent decrease in total joint circumference

Source: US10689369B2, “Substituted indazole compounds as RORgammaT inhibitors and uses thereof” (Merck Sharp & Dohme Corp., priority 2015, dated 2020)
